Experimental data published in PubChem BioAssay AID2060612 (Molecular Pharmacology Branch, DTP, NCI, 2025).

System: 565232-114-T-J1-PDC complex spheroid viability
Experiment: Anticancer human tumor 565232-114-T-J1-PDC patient-derived bladder carcinoma cell line growth inhibition [CLK]
Conditions: for IC50: curve of first compound; for viability, T/C: stronger effect = lower value
Source text: A high-throughput screen of multi-cell type tumor spheroids was designed to identify active combinations of […] and targeted small molecules. Complex spheroids include a stromal component modeled by human endothelial cells (HUVEC) and fibroblasts modeled by human mesenchymal stem cells (MSCs). The concentration ranges selected for each drug and investigational agent were based upon clinically achievable concentrations if the clinical Cmax of the agent was known.
Compounds. The drugs and investigational agents: cirtuvivint (SM08502; NSC835563), CC-671 (NSC850746), vemurafenib (NSC761431), tapotoclax (NSC804041), sotorasib (NSC818433), adagrasib (NSC831453), MRTX-1133 (NSC836407), BAY2416964 (NSC825713), copanlisib (NSC816437), inavolisib (NSC800729), abemaciclib (NSC768073), osimertinib (NSC779217), entinostat (NSC756642), eltanexor (KPT-8602, NSC794443), venetoclax (NSC766270), ceralasertib (NSC777638), bortezomib (NSC756655), olaparib (NSC753686), talazoparib (NSC767125), alisertib (NSC759677), peposertib (NSC802822), gemcitabine (NSC613327), 5-fluorouracil (NSC19893), SN-38 (NSC673596), oxaliplatin (NSC266046), paclitaxel (NSC125973), and doxorubicin (NSC123127), were obtained from the National Cancer Institute (NCI) Developmental Therapeutics Program Chemical Repository. The FDA-approved anticancer drug set is available from the Developmental Therapeutics Program at https://dtp.cancer.gov/organization/dscb/obtaining/available plates.htm. […] The stock solutions were prepared in dimethyl sulfoxide (DMSO, Sigma-Aldrich, St. Louis, MO, cat. D2650), except for the platinum complexes which were prepared in saline (Quality Biological, Gaithersburg, MD, cat. 114-055-101), at 800-fold the tested concentration and stored at -70 degrees C prior to their use. All drugs and investigational agents were tested over a range starting from a high concentration at or near the clinical Cmax and decreasing in half-log increments. If the clinical Cmax for an agent had not been determined, the highest concentration tested was 10 microM.
Cell Culture. All cells were maintained in an incubator at 37 degrees C and 5% CO2 with 95% humidity. The PDC lines were cultured according to standard operating procedures established by the NCI PDMR. Briefly, all PDCs were thawed and cultured in Matrigel-coated flasks prepared with a working solution of 1X Ham's F-12 nutrient mix, without supplementation (Invitrogen, Waltham, MA, cat. 11765054), 100 U/mL penicillin-streptomycin (Invitrogen, cat. 15140122), and 2.5% Matrigel (Corning Inc., Corning, NY, cat. 354248) for the first three passages. The 947758-054-R-J2-PDC line was cultured in 6B/Colon 1A media, which includes advanced DMEM/F-12 (Thermo Fisher Scientific, cat. 12634028), 10 mM HEPES (Thermo Fisher Scientific, cat. 15630080), 1X GlutaMAX supplement (Thermo Fisher Scientific, cat. 35050061), 0.1 mg/mL primocin (InvivoGen, cat. ant-pm-2), 10% defined fetal bovine serum, heat inactivated (HyClone Laboratories Inc., cat. SH30070.03HI), 1.25 mM N-Acetyl-L-cysteine (Sigma-Aldrich, cat. A9165), 10 mM nicotinamide (Sigma-Aldrich, cat. N0636), 1X B-27 supplement (Thermo Fisher Scientific, cat. 17504044), 1X N-2 supplement (Thermo Fisher Scientific, cat. 17502048), and 10 microM Y-27632 dihydrochloride (Tocris Bioscience, cat. 1254). The 876862-298-R-J1-PDC was cultured in 6E media, which includes all 6B/Colon 1A media components plus 50% L-WRN conditioned media (ATCC, cat. CRL-3276), 50 ng/mL recombinant human EGF recombinant protein (hEGF; Thermo Fisher Scientific, cat. PHG0311), 10 ng/mL recombinant human fibroblast growth factor 10 (hGFG-10; PeproTech, cat. 100-26), 1 ng/mL recombinant human fibroblast growth factor 2 (hFGF-2; PeproTech, cat. 100-18B), and 1 µM prostaglandin E2 (PGE2; Tocris, cat. 2296). The 227483-062-R1-J1-PDC line was cultured in Panc media, containing all 6E components except hFGF-2, with the addition of 500 nM SB-431542 (Selleckchem, cat. S1067) and 10 nM gastrin (Tocris, cat. 3006). […]
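Further: spheroids exposed to compounds for 7 days before readout.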
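Wherever viability, T/C is given: 100% = DMSO vehicle wells with luminescence normalized to vehicle control.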

COc1ccc([C@@H](O)c2cc(-c3ncnc4cc(N5CCOCC5)ccc34)c(F)cc2Cl)nn1 + CN1CCN(c2cc(C(=O)Nc3cc4cc(-c5cnn(C)c5)ccc4cn3)ccn2)CC1
IC50 (second compound 0.0316 µM): > 10000 nM | IC50 (second compound 0.1 µM): > 10000 nM | IC50 (second compound 0.316 µM): < 31.6 nM | IC50 (second compound 1 µM): < 31.6 nM | IC50 (second compound 3.16 µM): < 31.6 nM | IC50 (second compound 10 µM): < 31.6 nM | viability, T/C (second compound 0.0316 µM, first compound 0.0316 µM): 87.3% | viability, T/C (second compound 0.0316 µM, first compound 0.1 µM): 95.6% | viability, T/C (second compound 0.0316 µM, first compound 0.316 µM): 88.1% | viability, T/C (second compound 0.0316 µM, first compound 1 µM): 85.4% | viability, T/C (second compound 0.0316 µM, first compound 3.16 µM): 96.9% | viability, T/C (second compound 0.0316 µM, first compound 10 µM): 103% | viability, T/C (second compound 0.1 µM, first compound 0.0316 µM): 88.1% | viability, T/C (second compound 0.1 µM, first compound 0.1 µM): 91.6% | viability, T/C (second compound 0.1 µM, first compound 0.316 µM): 86.3% | viability, T/C (second compound 0.1 µM, first compound 1 µM): 113% | viability, T/C (second compound 0.1 µM, first compound 3.16 µM): 105% | viability, T/C (second compound 0.1 µM, first compound 10 µM): 97.9% | viability, T/C (second compound 0.316 µM, first compound 0.0316 µM): 12.2% | viability, T/C (second compound 0.316 µM, first compound 0.1 µM): 18.2% | viability, T/C (second compound 0.316 µM, first compound 0.316 µM): 17.1% | viability, T/C (second compound 0.316 µM, first compound 1 µM): 11.9% | viability, T/C (second compound 0.316 µM, first compound 3.16 µM): 16.2% | viability, T/C (second compound 0.316 µM, first compound 10 µM): 13.2% | viability, T/C (second compound 1 µM, first compound 0.0316 µM): 0.83% | viability, T/C (second compound 1 µM, first compound 0.1 µM): 0.2% | viability, T/C (second compound 1 µM, first compound 0.316 µM): 1.54% | viability, T/C (second compound 1 µM, first compound 1 µM): 0.18% | viability, T/C (second compound 1 µM, first compound 3.16 µM): 0.2% | viability, T/C (second compound 1 µM, first compound 10 µM): 1.34% | viability, T/C (second compound 3.16 µM, first compound 0.0316 µM): 0.14% | viability, T/C (second compound 3.16 µM, first compound 0.1 µM): 0.2% | viability, T/C (second compound 3.16 µM, first compound 0.316 µM): 0.18% | viability, T/C (second compound 3.16 µM, first compound 1 µM): 0.18% | viability, T/C (second compound 3.16 µM, first compound 3.16 µM): 1.47% | viability, T/C (second compound 3.16 µM, first compound 10 µM): 1.21% | viability, T/C (second compound 10 µM, first compound 0.0316 µM): 0.1% | viability, T/C (second compound 10 µM, first compound 0.1 µM): 0.16% | viability, T/C (second compound 10 µM, first compound 0.316 µM): 0.24% | viability, T/C (second compound 10 µM, first compound 1 µM): 0.19% | viability, T/C (second compound 10 µM, first compound 3.16 µM): 0.2% | viability, T/C (second compound 10 µM, first compound 10 µM): 1.44%
